Laboratory results taken from US20110301217A1, “Selective Glycosidase Inhibitors and Uses Thereof” (priority 2008, published 2011).

Target: T1, O-GlcNAcase (Homo sapiens, UniProt O60502)
T1 sequence (O60502 1-916): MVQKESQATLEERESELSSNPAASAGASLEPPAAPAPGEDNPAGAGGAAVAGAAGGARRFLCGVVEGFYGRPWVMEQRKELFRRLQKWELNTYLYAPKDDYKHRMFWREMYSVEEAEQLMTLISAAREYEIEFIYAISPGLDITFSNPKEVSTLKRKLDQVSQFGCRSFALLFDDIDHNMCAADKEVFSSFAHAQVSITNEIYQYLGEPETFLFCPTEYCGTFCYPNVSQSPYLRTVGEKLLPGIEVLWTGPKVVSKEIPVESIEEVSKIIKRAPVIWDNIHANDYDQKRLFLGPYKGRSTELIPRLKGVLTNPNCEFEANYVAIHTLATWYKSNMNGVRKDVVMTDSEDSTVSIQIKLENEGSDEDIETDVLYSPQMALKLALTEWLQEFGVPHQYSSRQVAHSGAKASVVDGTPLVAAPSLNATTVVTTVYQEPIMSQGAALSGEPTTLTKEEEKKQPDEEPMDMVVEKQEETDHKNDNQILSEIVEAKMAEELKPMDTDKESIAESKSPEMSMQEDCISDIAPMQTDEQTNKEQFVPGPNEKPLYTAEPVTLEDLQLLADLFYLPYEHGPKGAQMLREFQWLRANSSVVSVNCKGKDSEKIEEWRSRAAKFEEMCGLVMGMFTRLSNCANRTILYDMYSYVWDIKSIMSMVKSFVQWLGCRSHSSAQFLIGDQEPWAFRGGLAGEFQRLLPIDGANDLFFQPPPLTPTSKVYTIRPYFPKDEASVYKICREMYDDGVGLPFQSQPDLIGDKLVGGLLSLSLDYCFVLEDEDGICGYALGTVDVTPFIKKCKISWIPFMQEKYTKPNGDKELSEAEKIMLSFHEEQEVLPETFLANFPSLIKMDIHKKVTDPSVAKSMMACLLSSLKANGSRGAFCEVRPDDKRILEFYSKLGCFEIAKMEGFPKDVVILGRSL
Assay: Assay for determination of KI values for inhibition of O-GlcNAcase activity (pNP-GlcNAc substrate)
Type: biochemical
Settings: PBS pH 7.4, 0.5 mM pNP-GlcNAc, 37° C., Dixon plots
Protocol: Assay for Determination of KI Values for Inhibition of O-GlcNAcase Activity
Experimental procedure for kinetic analyses: Enzymatic reactions are carried out in PBS buffer (pH 7.4) using pNP-GlcNAc as a substrate (0.5 mM) and monitored continuously at 37° C. at 400 nm using a Cary 3E UV-VIS spectrophotometer equipped with a Peltier temperature controller. Reactions are pre-heated in a 500 μL quartz cuvette for approximately 5 minutes followed by addition of 10 μL enzyme via syringe (final enzyme concentration 0.002 mg/mL). Reaction velocities are determined by linear regression of the linear region of the reaction progress curve between the first and third minutes. An inhibitor concentration range of 1/5 to 5 times KI is used in each case.
All KI values are determined using linear regression of Dixon plots.

CC(=O)NC[C@H]1N[C@H](CO)[C@@H](O)[C@@H]1O [Compound 2, N-(((2R,3R,4R,5R)-3,4-dihydroxy-5-(hydroxymethyl)pyrrolidin-2-yl)methyl)acetamide]
Ki: 850 nM
